Some results are limits rather than exact numbers.

The target of the assay is Protein Wnt-3a (Human, UniProt P56704). Kind of assay: WNT pathway reporter gene assay. As for the experimental part: NIH3T3 mouse fibroblast cells (American Type Culture Collection, Manassas, Va.) were transfected with a plasmid containing a luciferase gene driven by 5 copies of TCF elements. Stale cells selected with 1 μg/mL of Zeocin (Gibco/Invitrogen, Carlsbad, Calif.) are cultured in Dulbecco's modified Eagle's medium (Invitrogen, Carlsbad, Calif.) supplemented with 10% FBS (Invitrogen), 50 unit/mL penicillin and 50 μg/mL of streptomycin (Invitrogen) at 37° C. with 5% CO2 in air atmosphere. […] After 16 hours, the firefly luciferase activities are measured with the Steady-Glo Luciferase Assay System (Promega). The cells were treated with different concentrations of compounds of this invention during the co-culture. […] To normalize for cell quantity and viability, CellTiter Glo assay is next performed in a duplicate plate.
Chain of Protein Wnt-3a (P56704 whole entry): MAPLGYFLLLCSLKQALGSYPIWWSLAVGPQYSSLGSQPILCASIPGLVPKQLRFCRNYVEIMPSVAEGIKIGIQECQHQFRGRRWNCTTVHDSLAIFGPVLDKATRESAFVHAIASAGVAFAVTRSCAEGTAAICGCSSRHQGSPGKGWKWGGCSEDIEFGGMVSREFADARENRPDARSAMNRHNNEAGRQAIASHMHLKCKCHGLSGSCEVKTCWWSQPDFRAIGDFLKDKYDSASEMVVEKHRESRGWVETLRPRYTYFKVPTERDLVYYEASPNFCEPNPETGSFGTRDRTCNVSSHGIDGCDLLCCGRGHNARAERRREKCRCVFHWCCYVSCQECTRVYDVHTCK
A general note: A reporter such as luciferase makes a cellular process visible.
In general, IC50 refers to the point on the concentration scale where inhibition reaches its midpoint. A high value points to weaker potency in that assay. Turning to `Cc1cc(-c2cc3ccnc(NCc4ccc(-c5ccnc(C)c5)c(C)c4)c3cn2)ccn1` [US10087181, Compound 2], the IC50 is less than 3 nM.
`Cc1cc(-c2ccc(CNc3nccc4cc(-c5cnccn5)ncc34)cc2)ccn1` [US10087181, Compound 35] yielded an IC50 of less than 3 nM.
As for `Cc1cc(-c2cc3ccnc(NCc4ccc(-c5ccnc(F)c5)c(F)c4)c3cn2)ccn1` [US10087181, Compound 28], the figure is less than 3 nM.
The molecule `Cc1cc(-c2ncc(CNc3nccc4cc(-c5cnccn5)ccc34)cc2C)ccn1` [US10087181, Compound 70] came in with an IC50 of less than 3 nM.
As for `Cc1cc(-c2ccc(CNc3nccc4cc(-c5ccnc(C)c5)ncc34)cc2)ccn1` [US10087181, Compound 1], the figure is less than 3 nM.

The values above are taken from BindingDB's records for patent US10087181 (Curegenix, 2018).
